Patent publication US8829014B2, “Thiazole and thiophene analogues, and their use in treating autoimmune diseases and cancers” (Board of Supervisors of Louisiana State University and …, priority 2006, dated 2014)

| SMILES | melting point [°C] |
| --- | --- |
| COC(=O)Nc1nc(-c2ccccc2)c(-c2nc3ccccc3c(=O)n2-c2cccc(C)c2)s1 [Example 185, [5-(4-Oxo-3-m-tolyl-3,4-dihydro-quinazolin-2-yl)-4-phenyl-thiazol-2-yl]-carbamic acid methyl ester] | 268 to 269 |
| COC(=O)Nc1nc(-c2ccccc2)c(-c2nc3ccccc3c(=O)n2-c2ccc(C)cc2)s1 [Example 194, [5-(4-Oxo-3-p-tolyl-3,4-dihydro-quinazolin-2-yl)-4-phenyl-thiazol-2-yl]-carbamic acid methyl ester] | > 275 |
| Cc1ccc(-n2c(-c3sc(NC(=O)c4ccccc4)nc3-c3ccccc3)nc3ccccc3c2=O)cc1 [Example 197, N-[5-(4-Oxo-3-p-tolyl-3,4-dihydro-quinazolin-2-yl)-4-phenyl-thiazole-2-yl]benzamide] | > 275 |
| COc1ccccc1-n1c(-c2sc(Nc3ccccc3)nc2C)nc2ccccc2c1=O [Example 202, 2-(4-Methyl-2-phenylamino-thiazol-5-yl)-3-(2-methoxyphenyl)-3H-quinazolin-4-one] | 169 to 170 |
| COc1cccc(-n2c(-c3sc(Nc4ccc(Cl)cc4)nc3C)nc3ccccc3c2=O)c1 [Example 211, 2-[2-(4-Chlorophenylamino)-4-methyl-thiazol-5-yl]-3-(3-methoxyphenyl)-3H-quinazolin-4-one] | 243 to 244 |
| CCOC(=O)Nc1nc(-c2ccccc2)c(-c2nc3ccccc3c(=O)n2-c2cccc(OC)c2)s1 [Example 212, [5-(4-Oxo-3-(3-methoxyphenyl)-3,4-dihydro-quinazolin-2-yl)-4-phenyl-thiazol-2-yl]-carbamic acid ethyl ester] | 204 to 205 |
| CNc1nc(-c2ccccc2)c(-c2nc3ccccc3c(=O)n2-c2ccc(OC)cc2)s1 [Example 220, 2-(2-Methylamino-4-phenyl-thiazol-5-yl)-3-(4-methoxyphenyl)-3H-quinazolin-4-one] | 235 to 236 |
| Cc1ccc(C(=O)Nc2nc(-c3ccccc3)c(-c3nc4ccccc4c(=O)n3-c3ccccc3Cl)s2)cc1 [Example 236, 4-Methyl-N-[5-(4-oxo-3-(2-chloro-phenyl)-3,4-dihydroquinazolin-2-yl)-4-phenyl-thiazol-2-yl]-benzamide] | > 275 |
| COC(=O)Nc1nc(C)c(-c2nc3ccccc3c(=O)n2-c2ccc(C(C)=O)cc2)s1 [Example 260, (4-Methyl-5-(4-oxo-3-(4-acetyl-phenyl)-3,4-dihydro-quinazolin-2-yl)-thiazol-2-yl)-carbamic acid methyl ester] | 232 to 234 |
| Cc1ccccc1-n1c(-c2cc(-c3ccncc3)c(N3CCOCC3)s2)nc2ccccc2c1=O [Example 283, 2-(5-Morpholin-4-yl-4-pyridin-4-yl-thiophen-2-yl)-3-o-tolyl-3H-quinazolin-4-one] | 208 to 210 |
| Cc1cccc(-n2c(-c3cc(-c4ccccc4)c(N4CCOCC4)s3)nc3ccccc3c2=O)c1 [Example 284, 2-(5-Morpholin-4-yl-4-phenyl-thiophene-2-yl)-3-m-tolyl-3H-quinazolin-4-one] | 194 to 196 |
| COc1ccccc1-n1c(-c2cc(-c3ccc(Cl)cc3)c(N3CCOCC3)s2)nc2ccccc2c1=O [Example 295, 2-[4-(4-Chlorophenyl)-5-morpholin-4-yl-thiophene-2-yl]-3-(2-methoxy-phenyl)-3H-quinazolin-4-one] | 216 to 217 |
| COc1cccc(-n2c(-c3cc(-c4ccccc4)c(N4CCOCC4)s3)nc3ccccc3c2=O)c1 [Example 299, 3-(3-Methoxy-phenyl)-2-(5-morpholin-4-yl-4-phenyl-thiophen-2-yl)-3H-quinazolin-4-one] | 269 to 272 |
| CNc1nc(-c2ccccc2)c(-c2nc3ccccc3c(=O)n2-c2ccccc2)s1 [Example 320, 2-(2-Methylamino-4-phenyl-thiazole-5-yl)-3-phenyl-3H-quinazolin-4-one] | 224 to 225 |
| COc1ccc(Nc2nc(NC(=O)Nc3ccc(F)cc3)c(-c3cc(C)c(OCC(F)(F)F)cn3)s2)cc1 [Example 367, 1-(4-Fluoro-phenyl)-3-{2-(4-methoxy-phenylamino)-5-[4-methyl-5-(2,2,2-trifluoro-ethoxy)-pyridin-2-yl]-thiazol-4-yl}-urea] | > 280 |

Continued, values first:

| melting point [°C] | SMILES |
| --- | --- |
| 105 to 107 | Cc1cccc(-n2c(-c3sc(Nc4ccccc4)nc3-c3ccccc3)nc3ccccc3c2=O)c1 [Example 187, 3-m-Tolyl-2-(4-phenyl-2-phenylamino-thiazol-5-yl)-3H-quinazolin-4-one] |
| 256 to 257 | Cc1ccc(-n2c(-c3sc(Nc4ccccc4)nc3C)nc3ccccc3c2=O)cc1 [Example 191, 2-(4-Methyl-2-phenylamino-thiazol-5-yl)-3-p-tolyl-3H-quinazolin-4-one] |
| 192 to 193 | CNc1nc(-c2ccccc2)c(-c2nc3ccccc3c(=O)n2-c2ccc(C)cc2)s1 [Example 195, 2-(2-Methylamino-4-phenyl-thiazol-5-yl)-3-p-tolyl-3H-quinazolin-4-one] |
| 228 to 230 | COC(=O)Nc1nc(-c2ccccc2)c(-c2nc3ccccc3c(=O)n2-c2ccccc2OC)s1 [Example 204, [5-(4-Oxo-3-(2-methoxyphenyl)-3,4-dihydro-quinazolin-2-yl)-4-phenyl-thiazol-2-yl]-carbamic acid methyl ester] |
| > 275 | COc1cccc(-n2c(-c3sc(Nc4ccccc4)nc3C)nc3ccccc3c2=O)c1 [Example 210, 2-(4-Methyl-2-phenylamino-thiazol-5-yl)-3-(3-methoxyphenyl)-3H-quinazolin-4-one] |
| 265 to 266 | COc1ccc(-n2c(-c3sc(Nc4ccccc4)nc3C)nc3ccccc3c2=O)cc1 [Example 216, 2-(4-Methyl-2-phenylamino-thiazol-5-yl)-3-(4-methoxyphenyl)-3H-quinazolin-4-one] |
| 272 to 274 | COC(=O)Nc1nc(-c2ccccc2)c(-c2nc3ccccc3c(=O)n2-c2ccc(OC)cc2)s1 [Example 219, [5-(4-Oxo-3-(4-methoxyphenyl)-3,4-dihydro-quinazolin-2-yl)-4-phenyl-thiazol-2-yl]-carbamic acid methyl ester] |
| 228 to 230 | Cc1cccc(-n2c(-c3cc(-c4ccc(Cl)cc4)c(N4CCOCC4)s3)nc3ccccc3c2=O)c1 [Example 285, 2-[4-(4-Chloro-phenyl)-5-morpholin-4-yl-thiophen-2-yl]-3-m-tolyl-3H-quinazolin-4-one] |
| 164 to 165 | COc1ccc(-n2c(-c3cc(-c4ccccc4)c(N4CCOCC4)s3)nc3ccccc3c2=O)cc1 [Example 301, 3-(4-Methoxy-phenyl)-2-(5-morpholin-4-yl-4-phenyl-thiophen-2-yl)-3H-quinazolin-4-one] |
| 217 to 218 | COc1ccc(-n2c(-c3cc(-c4ccc(Cl)cc4)c(N4CCOCC4)s3)nc3ccccc3c2=O)cc1 [Example 302, 2-[4-(4-Chloro-phenyl)-5-morpholin-4-yl-thiophene-2-yl]-3-(4-methoxy-phenyl)-3H-quinazolin-4-one] |
